Data reported in the supplement of paper PMC10307832.

Legend:
Experiment in all cases: relative viability (nuclei count vs DMSO), 5 days (fraction); higher = more cells survive
[1] = compound: Nc1ncn([C@H]2C[C@H](O)[C@@H](CO)O2)c(=O)n1 [Decitabine] + Cc1nc(Nc2ncc(C(=O)Nc3c(C)cccc3Cl)s2)cc(N2CCN(CCO)CC2)n1 [Dasatinib] (partner 0.075 µM)
In short: (§1)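 Medians of duplicate plates are given as relative viability. That measure is the nuclei count in treated wells divided by the count in vehicle wells. Counts were taken on 4× images of lung cancer cell lines in 1536-well plates, 5 days after pin-tool dosing the day after seeding with one drug alone or a fixed anchor-drug dose plus five library-drug doses (not always all listed) in √10 steps.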

[2] = compound: Nc1ncn([C@H]2C[C@H](O)[C@@H](CO)O2)c(=O)n1 [Decitabine] + NC(=O)Nc1cc(-c2cccc(F)c2)sc1C(=O)N[C@H]1CCCNC1 [AZD7762] (partner 0.2 µM)
In short: as §1

[3] = compound: Nc1ncn([C@H]2C[C@H](O)[C@@H](CO)O2)c(=O)n1 [Decitabine] + O=C(CCCCCCC(=O)Nc1ccccc1)NO [Vorinostat] (partner 1 µM)
In short: as §1

[4] = compound: O=C(C[C@H]1NCCC[C@@H]1O)Cn1cnc2cc(Br)c(Cl)cc2c1=O (racemic) [Halofuginone] + CC(=O)c1c(C)c2cnc(Nc3ccc(N4CCNCC4)cn3)nc2n(C2CCCC2)c1=O [Palbociclib] (partner 0.5 µM)
In short: as §1

NCI-H3122 was tested, and the relative viability ([1]; first compound 0.04 µM) was 0.665, the relative viability ([1]; first compound 0.1265 µM) was 0.833 and the relative viability ([1]; first compound 0.4 µM) was 0.233. The relative viability ([1]; first compound 1.265 µM) was 0.321, the relative viability ([1]; first compound 4 µM) was 0.459 and the relative viability ([2]; first compound 0.04 µM) was 0.927. The relative viability ([2]; first compound 0.1265 µM) was 0.823, the relative viability ([2]; first compound 0.4 µM) was 0.529 and the relative viability ([2]; first compound 1.265 µM) was 0.466. For the same cell line, the relative viability ([2]; first compound 4 µM) was 0.5, the relative viability ([3]; first compound 0.04 µM) was 0.92 and the relative viability ([3]; first compound 0.1265 µM) was 0.866. For the same cell line, the relative viability ([3]; first compound 0.4 µM) was 0.574, the relative viability ([3]; first compound 1.265 µM) was 0.53 and the relative viability ([3]; first compound 4 µM) was 0.487. It also gave a relative viability ([4]; first compound 0.001 µM) of 0.186, a relative viability ([4]; first compound 0.003162 µM) of 0.155 and a relative viability ([4]; first compound 0.01 µM) of 0.162. It also gave a relative viability ([4]; first compound 0.03162 µM) of 0.186 and a relative viability ([4]; first compound 0.1 µM) of 0.19.
PC-3 [JPC-3] showed a relative viability ([1]; first compound 0.04 µM) of 0.628, a relative viability ([1]; first compound 0.1265 µM) of 0.782 and a relative viability ([1]; first compound 0.4 µM) of 0.565. For the same cell line, the relative viability ([1]; first compound 1.265 µM) was 0.437, the relative viability ([1]; first compound 4 µM) was 0.399 and the relative viability ([2]; first compound 0.1265 µM) was 0.793. For the same cell line, the relative viability ([2]; first compound 0.4 µM) was 0.6, the relative viability ([2]; first compound 1.265 µM) was 0.453 and the relative viability ([2]; first compound 4 µM) was 0.602. For the same cell line, the relative viability ([3]; first compound 0.1265 µM) was 0.554, the relative viability ([3]; first compound 0.4 µM) was 0.507 and the relative viability ([3]; first compound 1.265 µM) was 0.454. The relative viability ([3]; first compound 4 µM) was 0.567, the relative viability ([4]; first compound 0.001 µM) was 0.595 and the relative viability ([4]; first compound 0.003162 µM) was 0.511. It also gave a relative viability ([4]; first compound 0.01 µM) of 0.529, a relative viability ([4]; first compound 0.03162 µM) of 0.516 and a relative viability ([4]; first compound 0.1 µM) of 0.493.
PC-14 showed a relative viability ([1]; first compound 0.04 µM) of 0.0322, a relative viability ([1]; first compound 0.1265 µM) of 0.142 and a relative viability ([1]; first compound 0.4 µM) of 0.0565. It also gave a relative viability ([1]; first compound 1.265 µM) of 0.0706, a relative viability ([1]; first compound 4 µM) of 0.0858 and a relative viability ([2]; first compound 0.04 µM) of 0.194. For the same cell line, the relative viability ([2]; first compound 0.1265 µM) was 0.281, the relative viability ([2]; first compound 0.4 µM) was 0.124 and the relative viability ([2]; first compound 1.265 µM) was 0.159. It also gave a relative viability ([2]; first compound 4 µM) of 0.116, a relative viability ([3]; first compound 0.04 µM) of 0.0877 and a relative viability ([3]; first compound 0.1265 µM) of 0.265. It also gave a relative viability ([3]; first compound 0.4 µM) of 0.125, a relative viability ([3]; first compound 1.265 µM) of 0.0989 and a relative viability ([3]; first compound 4 µM) of 0.0956. The relative viability ([4]; first compound 0.001 µM) was 0.509, the relative viability ([4]; first compound 0.003162 µM) was 0.597 and the relative viability ([4]; first compound 0.01 µM) was 0.514. For the same cell line, the relative viability ([4]; first compound 0.03162 µM) was 0.17 and the relative viability ([4]; first compound 0.1 µM) was 0.0426.
RERF-LC-KJ showed a relative viability ([1]; first compound 0.04 µM) of 0.703, a relative viability ([1]; first compound 0.1265 µM) of 0.741 and a relative viability ([1]; first compound 1.265 µM) of 0.465. For the same cell line, the relative viability ([1]; first compound 4 µM) was 0.485, the relative viability ([2]; first compound 0.04 µM) was 0.822 and the relative viability ([2]; first compound 0.1265 µM) was 0.95. For the same cell line, the relative viability ([2]; first compound 0.4 µM) was 0.439, the relative viability ([2]; first compound 1.265 µM) was 0.75 and the relative viability ([2]; first compound 4 µM) was 0.832. The relative viability ([3]; first compound 0.04 µM) was 0.573, the relative viability ([3]; first compound 0.1265 µM) was 0.651 and the relative viability ([3]; first compound 0.4 µM) was 0.286. It also gave a relative viability ([3]; first compound 1.265 µM) of 0.528, a relative viability ([3]; first compound 4 µM) of 0.494 and a relative viability ([4]; first compound 0.001 µM) of 1.18. The relative viability ([4]; first compound 0.003162 µM) was 0.973, the relative viability ([4]; first compound 0.01 µM) was 1.12 and the relative viability ([4]; first compound 0.03162 µM) was 1.03. For the same cell line, the relative viability ([4]; first compound 0.1 µM) was 0.811.
With SW 900 the relative viability ([1]; first compound 0.04 µM) was 0.35, the relative viability ([1]; first compound 0.1265 µM) was 0.405 and the relative viability ([1]; first compound 0.4 µM) was 0.387. It also gave a relative viability ([1]; first compound 1.265 µM) of 0.292, a relative viability ([1]; first compound 4 µM) of 0.163 and a relative viability ([2]; first compound 0.04 µM) of 0.502. It also gave a relative viability ([2]; first compound 0.1265 µM) of 0.646, a relative viability ([2]; first compound 0.4 µM) of 0.39 and a relative viability ([2]; first compound 1.265 µM) of 0.237. The relative viability ([2]; first compound 4 µM) was 0.298, the relative viability ([3]; first compound 0.04 µM) was 0.333 and the relative viability ([3]; first compound 0.1265 µM) was 0.42. It also gave a relative viability ([3]; first compound 0.4 µM) of 0.33, a relative viability ([3]; first compound 1.265 µM) of 0.193 and a relative viability ([3]; first compound 4 µM) of 0.286. The relative viability ([4]; first compound 0.001 µM) was 0.626, the relative viability ([4]; first compound 0.003162 µM) was 0.483 and the relative viability ([4]; first compound 0.03162 µM) was 0.622. It also gave a relative viability ([4]; first compound 0.1 µM) of 0.215.
